Assay results taken from patent EP4603105A1, “PHARMACEUTICAL COMPOSITION CONTAINING CYCLIC COMPOUND HAVING SELECTIVE KRAS INHIBITORY EFFECT AGAINST HRAS AND NRAS” (CHUGAI SEIYAKU KABUSHIKI KAISHA, priority 2022, dated 2024).
Read-outs that look alike come from different tables or passages of the source.

Columns and labels:
[1] = target: GDP-bound KRAS wild-type protein (Homo sapiens, UniProt P01116); experiment: Binding to KRAS by surface plasmon resonance (SPR), dissociation constant KD
Outline: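 Affinity is measured by surface plasmon resonance at 30°C against captured, GDP-loaded RAS carrying a biotinylated Avi tag. Compounds are titrated by single-cycle kinetics, and KD comes from a 1:1 fit.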

[2] = target: GDP-bound NRAS wild-type protein (Homo sapiens, UniProt P01111); experiment: Binding to NRAS by surface plasmon resonance (SPR), KD and KD ratio to KRAS
Outline: (§1)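 Compound binding is evaluated by SPR single-cycle kinetics, with concentrations added intermittently from low to high for 75 s each. Target surfaces carry GDP-loaded biotinylated Avi-RAS at about 100–300 RU, regenerated after each cycle; temperature 30°C. A 1:1 binding model gives KD.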

[3] = target: HRAS wild-type protein (Homo sapiens, UniProt P01112); experiment: Binding to HRAS by surface plasmon resonance (SPR), KD and KD ratio to KRAS
Outline: as §1

[4] = system: human lung cancer strain NCI-H441; experiment: NCI-H441 cell proliferation inhibitory activity (CellTiter-Glo, 4 days); type: cell-based; conditions: read-out: NCl-H441 IC50
Description: A test compound was dispensed into a U-bottom 384-well plate as 40 nL serially diluted dimethyl sulfoxide solutions using a liquid handler Echo (LABCYTE). […] This cell suspension was dispensed in an amount of 40 µL per well into a plate containing the test compound, and cultured at 37°C in a 5% carbon dioxide gas incubator. Four days later, 20 µL of CellTiter-Glo (registered trademark) (Promega) was added to each well and […] was measured. […]

[5] = ratio of KD for GDP-bound NRAS wild-type protein to KD for KRAS
[6] = ratio of KD for HRAS wild-type protein to KD for KRAS
[7] = Single Cycle Kinetics, 1:1 binding model
[8] = ratio of KD with respect to GDP-bound NRAS wild-type protein to KD with respect to KRAS
[9] = ratio of KD with respect to HRAS wild-type protein to KD with respect to KRAS
[10] = 50% proliferation inhibitory concentration, four days

Sequence of GDP-bound KRAS wild-type protein (P01116 1-188 isoform P01116-2): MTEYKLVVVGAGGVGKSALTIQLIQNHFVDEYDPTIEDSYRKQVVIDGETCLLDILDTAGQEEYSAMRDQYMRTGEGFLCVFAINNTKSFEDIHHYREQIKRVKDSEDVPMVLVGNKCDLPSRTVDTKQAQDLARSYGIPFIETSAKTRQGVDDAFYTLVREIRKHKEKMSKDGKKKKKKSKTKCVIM
Sequence of HRAS wild-type protein (P01112 whole entry): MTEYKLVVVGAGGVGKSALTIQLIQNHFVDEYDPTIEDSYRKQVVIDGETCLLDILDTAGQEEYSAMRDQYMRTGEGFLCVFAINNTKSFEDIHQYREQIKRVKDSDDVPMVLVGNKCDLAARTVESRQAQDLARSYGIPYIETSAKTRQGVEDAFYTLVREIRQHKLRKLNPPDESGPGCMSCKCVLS
Sequence of GDP-bound NRAS wild-type protein (P01111 whole entry): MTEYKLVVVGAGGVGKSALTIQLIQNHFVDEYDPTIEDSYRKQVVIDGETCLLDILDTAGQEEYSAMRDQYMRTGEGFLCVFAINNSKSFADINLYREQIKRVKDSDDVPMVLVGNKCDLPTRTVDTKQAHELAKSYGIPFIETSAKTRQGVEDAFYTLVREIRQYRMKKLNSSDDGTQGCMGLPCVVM

| IC50 ([4]; NCI-H441 cells, 4 days) | IC50 [4, 10] | Compound | also measured |
| --- | --- | --- | --- |
| 50.4 nM |  | CCCO[C@@H]1C[C@H]2C(=O)NC3(CC(C)(C)C3)C(=O)N(C)[C@@H](C3CCCC3)C(=O)N(C)[C@H](C(=O)N(C)CC)CC(=O)N(C)[C@@H](COCC)C(=O)N[C@@H]([C@@H](C)CC)C(=O)N3CCC[C@H]3C(=O)N(C)[C@H]3C/C=C\CCN(C3=O)[C@@H](Cc3ccc(C)cc3)C(=O)N(C)CC(=O)N[C@@H](CCc3ccc(C(F)(F)F)c(Cl)c3)C(=O)N2C1 [PP3463] | Kd ([1]; Single Cycle Kinetics): 0.97 nM; NRAS /KRAS [2, 5]: A (a compound having 10 or more and less than 20 is denoted as A); HRAS /KRAS [3, 6]: A (a compound having 10 or more and less than 20 is denoted as A) |
|  | 30.4 nM | CC[C@H](C)[C@@H]1NC(=O)[C@H](CC)N(C)C(=O)C[C@@H](C(=O)N(C)C)N(C)C(=O)[C@H](C2CCCC2)N(C)C(=O)C2(CCC2)NC(=O)[C@@H]2C[C@H](C)CN2C(=O)[C@H](CCc2cc(F)c(C(F)(F)F)c(F)c2)NC(=O)CN(C)C(=O)[C@H](CC2CCC(F)(F)CC2)N2CC/C=C\C[C@@H](C2=O)N(C)C(=O)CN(C)C1=O [PP1457] | Kd [1, 7]: 0.15 nM; NRAS /KRAS [2, 8]: A (a compound having 10 or more and less than 20 is denoted as A); HRAS /KRAS [3, 9]: A (a compound having 10 or more and less than 20 is denoted as A) |
|  | 386 nM | CCO[C@@H]1C[C@H]2C(=O)NC3(CCC3)C(=O)N(C)[C@@H](C3CCCC3)C(=O)N(C)[C@@H](C(=O)N(C)C)CC(=O)N(C)[C@@H](CC3CCCC3)C(=O)N[C@@H]([C@@H](C)CC)C(=O)N(C)CC(=O)N(C)[C@H]3C/C=C\CCN(C3=O)[C@@H](Cc3ccc(C(F)(F)F)cc3)C(=O)N(C)CC(=O)N[C@@H](CCc3cc(F)c(C(F)(F)F)c(F)c3)C(=O)N2C1 [PP1235] | NRAS /KRAS [2, 8]: B (a compound having 3 or more and less than 10 is denoted as B); HRAS /KRAS [3, 9]: C (A compound having a KD ratio of 0.1 or more and less than 3 is denoted as C) |
|  | 4.4 nM | CCO[C@@H]1C[C@H]2C(=O)NC3(CCC3)C(=O)N(C)[C@@H](C3CCCC3)C(=O)N(C)[C@H](C(=O)N3CCCC3)CC(=O)N(C)[C@@H](CC3CCC3)C(=O)N[C@@H]([C@@H](C)CC)C(=O)N(C)CC(=O)N(C)[C@H]3C/C=C\CCN(C3=O)[C@@H](Cc3ccc(C(F)(F)F)cc3)C(=O)N(C)CC(=O)N[C@@H](CCc3cc(F)c(C(F)(F)F)c(F)c3)C(=O)N2C1 [PP1423] |  |
|  | 37.1 nM | CCO[C@@H]1C[C@H]2C(=O)NC3(CCC3)C(=O)N(C)[C@@H](C3CCCC3)C(=O)N(C)[C@H](C(=O)N(C)C)CC(=O)N(C)[C@@H](CC3CCCC3)C(=O)N[C@@H]([C@@H](C)CC)C(=O)N(C)CC(=O)N(C)[C@H]3C/C=C\CCN(C3=O)[C@@H](CC3CCCCC3)C(=O)N(C)CC(=O)N[C@@H](CCc3cc(F)c(C(F)(F)F)c(F)c3)C(=O)N2C1 [PP1472] |  |
|  | 50.1 nM | CCC[C@H]1C(=O)N[C@@H]([C@@H](C)CC)C(=O)N(C)CC(=O)N(C)[C@H]2C/C=C\CCN(C2=O)[C@@H](CC2CCC(F)(F)CC2)C(=O)N(C)CC(=O)N[C@@H](CCc2cc(F)c(C(F)(F)F)c(F)c2)C(=O)N2C[C@H](OCC)C[C@H]2C(=O)NC2(CCC2)C(=O)N(C)[C@@H](C2CCCC2)C(=O)N(C)[C@H](C(=O)N(C)C)CC(=O)N1C [PP1450] |  |
|  | 20.1 nM | CC[C@H](C)[C@@H]1NC(=O)[C@H](CC)N(C)C(=O)C[C@@H](C(=O)N2CCOCC2)N(C)C(=O)[C@H](C2CCCC2)N(C)C(=O)C2(CCCC2)NC(=O)[C@@H]2CCCN2C(=O)[C@H](CCc2cc(F)c(C(F)(F)F)c(F)c2)NC(=O)CN(C)C(=O)[C@H](Cc2ccc(C(F)(F)F)cc2)N2CC(C)[C@@H](C)C[C@@H](C2=O)N(C)C(=O)CN(C)C1=O (some centres unmarked) [PP1350] | NRAS /KRAS [2, 8]: B (a compound having 3 or more and less than 10 is denoted as B); HRAS /KRAS [3, 9]: B (a compound having 3 or more and less than 10 is denoted as B) |
| 562 nM |  | CCC(CC)[C@H]1C(=O)N(C)[C@H](C(=O)N(C)C)CC(=O)N(C)[C@@H](COC)C(=O)N[C@@H]([C@@H](C)CC)C(=O)N(C2CC2)CC(=O)N(C)[C@H]2C/C=C\CCN(C2=O)[C@@H](CC2CCCCC2)C(=O)N(C)CC(=O)N[C@@H](CCc2ccc(Cl)c(Cl)c2)C(=O)N2C[C@H](OC(C)C)C[C@H]2C(=O)NC2(CC(C)(C)C2)C(=O)N1C [PP2517] | Kd ([1]; 1:1 binding model): 9.3 nM; HRAS /KRAS [3, 6]: A (a compound having 10 or more and less than 20 is denoted as A) |
| 71.9 nM |  | CCCOC[C@H]1C(=O)N[C@@H]([C@@H](C)OCC)C(=O)N(C)CC(=O)N(C)[C@H]2C/C=C\CCN(C2=O)[C@@H](Cc2ccc(C)cc2)C(=O)N(C)CC(=O)N[C@@H](CCc2ccc(C(F)(F)F)c(OC)c2)C(=O)N2C[C@@H](C)C[C@H]2C(=O)NC2(CC(C)(C)C2)C(=O)N(C)[C@@H](C2CCCC2)C(=O)N(C)[C@H](C(=O)N(C)CC)CC(=O)N1C [PP2423] | NRAS /KRAS [2, 5]: A (a compound having 10 or more and less than 20 is denoted as A); HRAS /KRAS [3, 6]: A (a compound having 10 or more and less than 20 is denoted as A) |
|  | 24.1 nM | CCCCCC[C@H]1C(=O)N[C@@H]([C@@H](C)CC)C(=O)N(C)CC(=O)N(C)[C@H]2C/C=C\CCN(C2=O)[C@@H](Cc2ccc(C(F)(F)F)cc2)C(=O)N(C)CC(=O)N[C@@H](CCc2cc(F)c(C(F)(F)F)c(F)c2)C(=O)N2C[C@H](OCC)C[C@H]2C(=O)NC2(CCC2)C(=O)N(C)[C@@H](C(CC)CC)C(=O)N(C)[C@H](C(=O)N(C)C)CC(=O)N1C [PP1202] | Kd [1, 7]: 0.4 nM |
|  | 45.7 nM | CCO[C@@H]1C[C@H]2C(=O)NC3(COC3)C(=O)N(C)[C@@H](C3CCCC3)C(=O)N(C)[C@H](C(=O)N(C)C)CC(=O)N(C)[C@@H](CC)C(=O)N[C@@H]([C@@H](C)CC)C(=O)N(C)CC(=O)N(C)[C@H]3C/C=C\CCN(C3=O)[C@@H](Cc3ccc(C(F)(F)F)cc3)C(=O)N(C)CC(=O)N[C@@H](CCc3cc(F)c(C(F)(F)F)c(F)c3)C(=O)N2C1 [PP1278] |  |
| 15.1 nM |  | CCO[C@@H]1C[C@H]2C(=O)NC3(CC(C)(C)C3)C(=O)N(C)[C@@H](C3CCCC3)C(=O)N(C)[C@H](C(=O)N(C)CC)CC(=O)N(C)[C@@H]([C@H](C)OC)C(=O)N[C@@H]([C@@H](C)CC)C(=O)N(C)CC(=O)N(C)[C@H]3C/C=C\CCN(C3=O)[C@@H](Cc3ccc(C(F)(F)F)cc3)C(=O)N(C)CC(=O)N[C@@H](CCc3ccc(C(F)(F)F)c(Cl)c3)C(=O)N2C1 [PP3218] |  |
|  | 33.2 nM | CCO[C@@H]1C[C@H]2C(=O)NC3(CCC3)C(=O)N(C)[C@@H](C3CCCC3)C(=O)N(C)[C@H](C(=O)N(C)C)CC(=O)N(C)[C@@H](CC)C(=O)N[C@@H]([C@@H](C)CC)C(=O)N(C)CC(=O)N(C)[C@H]3C/C=C\CCN(C3=O)[C@@H](CC3CCCCC3)C(=O)N(C)CC(=O)N[C@@H](CCc3cc(F)c(C(F)(F)F)c(F)c3)C(=O)N2C1 [PP1466] |  |
| 33.4 nM |  | CC[C@H](C)[C@@H]1NC(=O)[C@H](COC)N(C)C(=O)C[C@@H](C(=O)N(C)C)N(C)C(=O)[C@H](C2CCCC2)N(C)C(=O)C2(CC(C)(C)C2)NC(=O)[C@@H]2C[C@@H](OC3CCCC3)CN2C(=O)[C@H](CCc2cc(F)c(C(F)(F)F)c(F)c2)NC(=O)CN(C)C(=O)[C@H](Cc2ccc(C)cc2)N2CC/C=C\C[C@@H](C2=O)N(C)C(=O)CN(C2CC2)C1=O [PP2626] | NRAS /KRAS [2, 5]: A (a compound having 10 or more and less than 20 is denoted as A); HRAS /KRAS [3, 6]: A (a compound having 10 or more and less than 20 is denoted as A) |
| 22.1 nM |  | CCO[C@@H]1C[C@H]2C(=O)NC3(CC(C)(C)C3)C(=O)N(C)[C@@H](C3CCCC3)C(=O)N(C)[C@H](C(=O)N(C)CC)CC(=O)N(C)[C@@H]([C@H](C)OC)C(=O)N[C@@H]([C@@H](C)CC)C(=O)N(C)CC(=O)N(C)[C@H]3C/C=C\CCN(C3=O)[C@@H](Cc3ccc(C(F)(F)F)cc3)C(=O)N(C)CC(=O)N[C@@H](CCc3ccc(C(F)(F)F)c(OC)c3)C(=O)N2C1 [PP3216] |  |
|  | 10.2 nM | CCO[C@@H]1C[C@H]2C(=O)NC3(CCC3)C(=O)N(C)[C@@H](C3CCCC3)C(=O)N(C)[C@H](C(=O)N3CCOCC3)CC(=O)N(C)[C@@H](CC)C(=O)N[C@@H]([C@@H](C)CC)C(=O)N(C)CC(=O)N(C)[C@H]3C/C=C\CCN(C3=O)[C@@H](Cc3ccc(C(F)(F)F)cc3)C(=O)N(C)CC(=O)N[C@@H](CCc3ccc(C(F)(F)F)c(Cl)c3)C(=O)N2C1 [PP1281] |  |
|  | 19.4 nM | CCCC[C@H]1C(=O)N[C@@H]([C@@H](C)CC)C(=O)N(C)CC(=O)N(C)[C@H]2C/C=C\CCN(C2=O)[C@@H](Cc2ccc(C(F)(F)F)cc2)C(=O)N(C)CC(=O)N[C@@H](CCc2cc(F)c(C(F)(F)F)c(F)c2)C(=O)N2C[C@H](OCC)C[C@H]2C(=O)NC2(CCC2)C(=O)N(C)[C@@H](C2CCCC2)C(=O)N(C)[C@H](C(=O)N2CCCC2)CC(=O)N1C [PP1396] |  |
|  | 11 nM | CCC[C@H]1C(=O)N[C@@H]([C@@H](C)CC)C(=O)N(C)CC(=O)N(C)[C@H]2C/C=C\CCN(C2=O)[C@@H](Cc2ccc(C(F)(F)F)cc2)C(=O)N(C)CC(=O)N[C@@H](CCc2cc(F)c(C(F)(F)F)c(F)c2)C(=O)N2C[C@H](OCC)C[C@H]2C(=O)NC2(CCC2)C(=O)N(C)[C@@H](C2CCCC2)C(=O)N(C)[C@H](C(=O)N2CCCC2)CC(=O)N1C [PP1299] |  |
